Assay type in all cases: biochemical
The target in one test is CDK9/CyclinT1 (Homo sapiens (Human), UniProt P50750). The test is described as follows: CDK9/CyclinT1 kinase inhibitory activity (Caliper mobility shift). The settings on record: read-out: CDK9/Cyclin T1 IC50.
The next test deals with CDK2/CyclinE1 (Homo sapiens (Human), UniProt P24941). The test is described as follows: CDK2/CyclinE1 kinase inhibitory activity (Caliper mobility shift). The settings on record: read-out: CDK2/Cyclin El IC50.
The target in the next test is CDK1/CyclinB (Homo sapiens (Human), UniProt P06493). The test is described as follows: CDK1/CyclinB kinase inhibitory activity (Caliper mobility shift). The settings on record: read-out: CDK1/Cyclin B1 IC50.
Chain of CDK1/CyclinB (P06493 whole entry): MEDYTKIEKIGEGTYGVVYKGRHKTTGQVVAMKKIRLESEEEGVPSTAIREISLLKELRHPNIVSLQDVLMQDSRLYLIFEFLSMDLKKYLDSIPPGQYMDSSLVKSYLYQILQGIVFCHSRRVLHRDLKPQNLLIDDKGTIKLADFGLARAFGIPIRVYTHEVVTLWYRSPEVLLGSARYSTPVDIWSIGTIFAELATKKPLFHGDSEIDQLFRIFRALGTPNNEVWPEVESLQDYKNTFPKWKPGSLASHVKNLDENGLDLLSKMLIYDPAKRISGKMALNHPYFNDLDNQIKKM
Chain of CDK1/CyclinB (P14635 whole entry partner): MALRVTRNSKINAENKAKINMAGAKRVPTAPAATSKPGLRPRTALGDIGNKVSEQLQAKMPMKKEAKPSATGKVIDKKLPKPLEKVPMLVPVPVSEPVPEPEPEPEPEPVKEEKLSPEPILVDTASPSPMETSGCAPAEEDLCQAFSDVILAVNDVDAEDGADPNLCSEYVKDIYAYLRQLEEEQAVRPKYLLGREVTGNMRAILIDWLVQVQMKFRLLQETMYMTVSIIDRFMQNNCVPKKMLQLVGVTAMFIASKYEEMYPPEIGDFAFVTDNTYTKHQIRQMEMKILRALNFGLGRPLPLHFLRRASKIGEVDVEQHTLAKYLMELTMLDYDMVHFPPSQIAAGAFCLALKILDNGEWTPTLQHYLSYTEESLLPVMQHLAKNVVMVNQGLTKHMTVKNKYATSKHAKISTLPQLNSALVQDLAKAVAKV

Chain of CDK9/CyclinT1 (P50750 whole entry): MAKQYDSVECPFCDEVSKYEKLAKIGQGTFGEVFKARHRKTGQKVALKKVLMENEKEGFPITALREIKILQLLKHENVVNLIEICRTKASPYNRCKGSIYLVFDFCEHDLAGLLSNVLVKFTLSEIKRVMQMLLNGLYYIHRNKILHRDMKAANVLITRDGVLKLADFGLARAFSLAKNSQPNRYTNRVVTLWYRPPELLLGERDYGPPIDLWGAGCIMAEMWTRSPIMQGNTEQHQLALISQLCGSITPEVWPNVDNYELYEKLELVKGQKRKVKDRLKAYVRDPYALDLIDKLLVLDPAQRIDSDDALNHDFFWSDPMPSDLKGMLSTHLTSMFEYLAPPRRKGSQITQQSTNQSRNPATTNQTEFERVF
Chain of CDK9/CyclinT1 (O60563 whole entry partner): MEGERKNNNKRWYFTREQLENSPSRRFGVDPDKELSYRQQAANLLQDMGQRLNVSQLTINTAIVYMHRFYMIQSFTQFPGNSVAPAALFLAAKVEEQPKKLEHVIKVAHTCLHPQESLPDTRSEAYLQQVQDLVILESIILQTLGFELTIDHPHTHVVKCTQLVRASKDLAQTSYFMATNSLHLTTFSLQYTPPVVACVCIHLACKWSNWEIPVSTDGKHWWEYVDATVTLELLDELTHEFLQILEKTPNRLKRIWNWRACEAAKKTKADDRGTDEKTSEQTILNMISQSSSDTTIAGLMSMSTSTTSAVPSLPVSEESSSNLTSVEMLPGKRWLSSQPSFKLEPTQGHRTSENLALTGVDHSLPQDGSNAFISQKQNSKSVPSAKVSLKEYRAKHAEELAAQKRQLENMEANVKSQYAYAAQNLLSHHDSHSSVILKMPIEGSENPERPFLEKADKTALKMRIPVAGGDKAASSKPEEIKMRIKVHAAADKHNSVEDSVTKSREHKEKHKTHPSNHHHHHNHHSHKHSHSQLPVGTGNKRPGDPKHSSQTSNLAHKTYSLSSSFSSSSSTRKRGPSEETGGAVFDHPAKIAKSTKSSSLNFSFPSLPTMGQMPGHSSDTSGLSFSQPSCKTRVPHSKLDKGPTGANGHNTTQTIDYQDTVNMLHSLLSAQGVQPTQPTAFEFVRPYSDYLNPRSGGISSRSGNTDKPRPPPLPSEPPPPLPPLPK

Turning to `N#Cc1cnc(Nc2ccc(S(N)(=O)=O)cc2)nc1OC1CCCC1CO` (single isomer, unassigned) [Example 18b], the IC50 is 100 to 1000 nM at CDK9/CyclinT1, below 10 nM on CDK2/CyclinE1 and 10 to 100 nM at CDK1/CyclinB.
With `N#Cc1cnc(Nc2ccc(S(N)(=O)=O)cc2)nc1N1CCCC(c2ccccc2)C1` (racemic) [Example 84], the IC50 at CDK2/CyclinE1 and on CDK1/CyclinB was 10 to 100 nM in each case.
With `[2H]C([2H])([2H])NS(=O)(=O)c1ccc(Nc2ncc(CC)c(OC3COCC3(C)O)n2)cc1` (single isomer, unassigned) [Example 150b], the IC50 at CDK2/CyclinE1 is 100 to 1000 nM; on CDK1/CyclinB it was at least 1000 nM.
For `C[C@H]1CCCCN1c1nc(Nc2ccc(S(N)(=O)=O)cc2)ncc1F` [Example 88], the IC50 is below 10 nM on CDK2/CyclinE1 and 10 to 100 nM at CDK1/CyclinB.
With `[2H]C([2H])([2H])NS(=O)(=O)c1ccc(Nc2ncc(C(=C)F)c(O[C@@H]3CCC[C@@H]3O)n2)cc1` (single isomer, unassigned) [Example 135b, cis-4-((5-(1-fluorovinyl)-4-((2-hydroxycyclopentyl)oxy)pyrimidin-2-yl)amino)-N-(methyl-d3)benzenesulfonamide], the IC50 fell in the range of 10 to 100 nM on CDK2/CyclinE1 and 100 to 1000 nM at CDK1/CyclinB.
Consider `C=C(F)c1cnc(Nc2ccc(S(=O)(=O)NC)cc2)nc1O[C@@H]1CCC[C@@H]1O` (single isomer, unassigned) [Example 135b, cis-4-((5-(1-fluorovinyl)-4-((2-hydroxycyclopentyl)oxy)pyrimidin-2-yl)amino)-N-(methyl-d3)benzenesulfonamide], for which, on CDK9/CyclinT1, the IC50 lay in the range of 100 to 1000 nM.
For `[2H]C([2H])([2H])NS(=O)(=O)c1ccc(Nc2ncc(C(F)(F)F)c(O[C@H]3CCOC[C@H]3O)n2)cc1` (single isomer, unassigned) [Example 100b, cis-4-((4-((3-hydroxytetrahydro-2H-pyran-4-yl)oxy)-5-(trifluoromethyl)pyrimidin-2-yl)amino)-N-(methyl-d3)benzenesulfonamide], the IC50 on CDK2/CyclinE1 was in the range of 10 to 100 nM; at CDK1/CyclinB, 100 to 1000 nM.
The like results for `N#Cc1cnc(Nc2ccc(S(N)(=O)=O)cc2)nc1OCC1(O)CCCCC1` [Example 16] were, in that order, 10 to 100 nM and 100 to 1000 nM.
Regarding `[2H]C([2H])([2H])NS(=O)(=O)c1ccc(Nc2ncc(C(F)(F)F)c(O[C@H]3CCOC[C@H]3O)n2)c(F)c1` (single isomer, unassigned) [Example 101b, cis-3-fluoro-4-((4-((3-hydroxytetrahydro-2H-pyran-4-yl)oxy)-5-(trifluoromethyl)pyrimidin-2-yl)amino)-N-(methyl-d3)benzenesulfonamide], on CDK2/CyclinE1, the IC50 is 10 to 100 nM.
Turning to `CNS(=O)(=O)c1ccc(Nc2ncc(C(F)(F)F)c(O[C@H]3CCOC[C@H]3O)n2)cc1` (single isomer, unassigned) [Example 100b, cis-4-((4-((3-hydroxytetrahydro-2H-pyran-4-yl)oxy)-5-(trifluoromethyl)pyrimidin-2-yl)amino)-N-(methyl-d3)benzenesulfonamide], the IC50 on CDK9/CyclinT1 was 100 to 1000 nM.
`CS(=N)(=O)c1ccc(Nc2ncc(C#N)c(N3CCCCC3)n2)cc1` (stereo not drawn) [Example 90]: the IC50 was 10 to 100 nM at CDK2/CyclinE1 and 100 to 1000 nM at CDK1/CyclinB.
As to `CC1(COc2nc(NC3CCN(S(=O)(=O)c4cn[nH]c4)CC3)ncc2C#N)CCCC1` [Example 8, 2-((1-((1H-pyrazol-4-yl)sulfonyl)piperidin-4-yl)amino)-4-((1-methylcyclopentyl)methoxy)pyrimidine-5-carbonitrile], the IC50 on CDK9/CyclinT1 was in the range of 100 to 1000 nM.
For `C[C@@H]1CCCCN1c1nc(Nc2ccc(S(N)(=O)=O)cc2)ncc1F` [Example 87], the IC50 was below 10 nM at CDK2/CyclinE1 and 10 to 100 nM on CDK1/CyclinB.
For the compound `N#Cc1cnc(Nc2ccc(S(N)(=O)=O)cc2)nc1OCC1CCCCC1` [Example 13], the IC50 on CDK2/CyclinE1 and at CDK1/CyclinB was 10 to 100 nM each time.
`CO[C@H]1CCCN(c2nc(Nc3ccc(S(N)(=O)=O)cc3)ncc2C#N)C1` [Example 80]: the IC50 at CDK2/CyclinE1 is 10 to 100 nM; at CDK1/CyclinB, 100 to 1000 nM.
